Measurements reported in ChEMBL document CHEMBL3745689, “Indomethacin derivatives as tubulin stabilizers to inhibit cancer cell proliferation” (Bioorg Med Chem, 2016).
Active and inactive are the calls of the source. The calls are words filed in the database; no cut-off is given here.

Assays:
NCI-H292 = assay: Cytotoxicity against human NCI-H292 cells after 72 hrs by MTT assay; assay type: functional, cell-based; settings: NCI-H292, 72 h
[1] = Cytotoxicity against human PC3 cells after 72 hrs by MTT assay; assay type: functional, cell-based; settings: PC-3, 72 h
HT-29 = assay: Cytotoxicity against human HT-29 cells after 72 hrs by MTT assay; assay type: functional, cell-based; settings: HT-29, 72 h
[2] = Cytotoxicity against human MDA468 cells after 72 hrs by MTT assay; assay type: functional, cell-based; settings: MDA-MB-468, 72 h
Tubulin (Bos taurus) [3] = target: T1, Tubulin (Bos taurus) (UniProt Q6B856+Q862L2+Q862F3); assay: Stabilization of bovine tubulin polymerization at 10 uM after 20 mins by spectrophotometer analysis; assay type: protein assay
Tubulin (Bos taurus) [4] = target: T1, Tubulin (Bos taurus); assay: Induction of bovine tubulin polymerization at 5 uM after 20 mins by spectrophotometer analysis; assay type: protein assay

Row | SMILES | IC50 (NCI-H292) [µM] | further results
1 | Cc1c(CC(=O)NCCN(C)C)c2cc(NC(=O)c3ccc(Br)cc3)ccc2n1S(=O)(=O)c1ccccc1 | 55.5 | 
2 | CCCC(=O)Nc1ccc2c(c1)c(CC(=O)NCCN(C)C)c(C)n2C(=O)c1ccc(Br)cc1 | 39.6 | 
3 | Cc1c(CC(=O)NCCN(C)C)c2cc(NC(=O)c3cccc(OCc4ccccc4)c3)ccc2n1S(=O)(=O)c1ccccc1 | 19.3 | 
4 | Cc1c(CC(=O)NCCN(C)C)c2cc(N)ccc2n1C(=O)c1ccc(Br)cc1 | 31.5 | 
5 | CC(=O)Nc1ccc2c(c1)c(CC(=O)NCCN(C)C)c(C)n2C(=O)c1ccc(Br)cc1 | 67.6 | 
6 | Cc1c(CC(=O)NCCN(C)C)c2cc(NC(=O)c3ccc(C#N)cc3)ccc2n1C(=O)c1ccc(Br)cc1 | 20.8 | 
7 | CCC(=O)Nc1ccc2c(c1)c(CC(=O)NCCN(C)C)c(C)n2C(=O)c1ccc(Br)cc1 | 21.8 | 
8 | CCC(=O)Nc1ccc2c(c1)c(CC(=O)NCCN(C)C)c(C)n2S(=O)(=O)c1ccccc1 | 38.5 | 
9 | Cc1c(CC(=O)NCCN(C)C)c2cc(NC(=O)C(C)C)ccc2n1S(=O)(=O)c1ccccc1 | 30.9 | 
10 | Cc1c(CC(=O)NCCN(C)C)c2cc(N)ccc2n1S(=O)(=O)c1ccccc1 | 64.2 | 
11 | COc1ccc(C(=O)Nc2ccc3c(c2)c(CC(=O)NCCN(C)C)c(C)n3C(=O)c2ccc(Br)cc2)cc1 | 13.9 | IC50 [1]: 10.2 µM; IC50 (HT-29): 7.19 µM; IC50 [2]: 8.16 µM
12 | Cc1c(CC(=O)NCCN(C)C)c2cc(NC(=O)OC(C)(C)C)ccc2n1C(=O)c1ccc(Br)cc1 | 14.9 | 
13 | CC(=O)Nc1ccc2c(c1)c(CC(=O)NCCN(C)C)c(C)n2S(=O)(=O)c1ccccc1 | 113 | 
14 | CC(=O)O[C@H]1C(=O)[C@@]2(C)[C@H]([C@H](OC(=O)c3ccccc3)[C@]3(O)C[C@H](OC(=O)[C@H](O)[C@@H](NC(=O)c4ccccc4)c4ccccc4)C(C)=C1C3(C)C)[C@]1(OC(C)=O)CO[C@@H]1C[C@@H]2O [PACLITAXEL] | 0.006 | Activity (Tubulin (Bos taurus) [3]): Active
15 | Cc1c(CC(=O)NCCN(C)C)c2cc(NC(=O)c3cccc(OCc4ccccc4)c3)ccc2n1C(=O)c1ccc(Br)cc1 | 1.73 | Activity (Tubulin (Bos taurus) [3]): Active; IC50 [1]: 8.8 µM; Activity (Tubulin (Bos taurus) [4]): Active; IC50 (HT-29): 1.48 µM; IC50 [2]: 2.37 µM
16 | CCCC(=O)Nc1ccc2c(c1)c(CC(=O)NCCN(C)C)c(C)n2S(=O)(=O)c1ccccc1 | 33.5 | 
17 | Cc1c(CC(=O)NCCN(C)C)c2cc(NC(=O)c3ccccc3)ccc2n1C(=O)c1ccc(Br)cc1 | 13.4 | IC50 [1]: 13.2 µM; IC50 (HT-29): 6.72 µM; IC50 [2]: 7.67 µM
18 | Cc1c(CC(=O)NCCN(C)C)c2cc(NC(=O)OC(C)(C)C)ccc2n1S(=O)(=O)c1ccccc1 | 25.9 | 
